From US4069317A, “N^2 -Arylsulfonyl-L-argininamides and the pharmaceutically acceptable salts thereof” (Mitsubishi Chemical Industries Ltd., priority 1974, dated 1978)

Target: T1, thrombin (Bos taurus, UniProt P00735)
T1 construct: purchased Mochida Pharmaceutical Co., Ltd
Assay: fibrinogen coagulation time
Type: biochemical
Settings: bovine fibrinogen, thrombin 5 units/ml, borate saline buffer pH 7.4, 25° C; control coagulation time 50-55 seconds
Procedure: The measurement of the fibrinogen coagulation time was conducted as follows:
Immediately after mixing, the reaction mixture was transferred from the ice bath to a bath maintained at 25° C. Coagulation times were taken as the period between the time of transference to the 25° C bath and the time of the first appearance of fibrin threads.
The term "concentration required to prolong the coagulation time by a factor of two" is the concentration of an active ingredient required to prolong the normal coagulation time 50-55 seconds to 100-110 seconds.

| Structure (SMILES) | Concentration required to prolong the coagulation time by a factor of two [µM] |
| --- | --- |
| CCCCCN(C(=O)[C@H](CCCNC(=N)N)NS(=O)(=O)c1ccc2cc(OC)c(OC)cc2c1)[C@@H](C)C(=O)O [Sample 4, N^2-(6,7-dimethoxy-2-naphthylsulfonyl)-L-arginyl-N-pentylalanine] | 2.0 |
| COc1cc2ccc(S(=O)(=O)N[C@@H](CCCNC(=N)N)C(=O)N(Cc3ccccc3)[C@@H](C)C(=O)O)cc2cc1OC [Sample 6, N^2-(6,7-dimethoxy-2-naphthylsulfonyl)-L-arginyl-N-benzylalanine] | 2.5 |
| COc1cc2ccc(S(=O)(=O)N[C@@H](CCCNC(=N)N)C(=O)N(CCc3ccccc3)[C@@H](C)C(=O)O)cc2cc1OC [Sample 8, N^2-(6,7-dimethoxy-2-naphthylsulfonyl)-L-arginyl-N-phenethylalanine] | 1.5 |
| COc1ccc2cc(S(=O)(=O)N[C@@H](CCCNC(=N)N)C(=O)N(CC3CCCCC3)[C@@H](C)C(=O)O)cc(OC)c2c1 [Sample 12, N^2-(4,6-dimethoxy-2-naphthylsulfonyl)-L-arginyl-N-cyclohexylmethylalanine] | 4.5 |
| COCCN(C(=O)[C@H](CCCNC(=N)N)NS(=O)(=O)c1ccc2cc(OC)c(OC)cc2c1)[C@@H](C)C(=O)O [Sample 15, N^2-(6,7-dimethoxy-2-naphthylsulfonyl)-L-arginyl-N-(2-methoxyethyl)alanine] | 5 |
| COc1cc2ccc(S(=O)(=O)N[C@@H](CCCNC(=N)N)C(=O)N(C)[C@@H](Cc3ccccc3)C(=O)O)cc2cc1OC [Sample 18, N^2-(6,7-dimethoxy-2-naphthylsulfonyl)-L-arginyl-N-methylphenylalanine] | 2 |
| COc1ccc2ccc(S(=O)(=O)N[C@@H](CCCNC(=N)N)C(=O)N(C)[C@@H](Cc3ccccc3)C(=O)O)cc2c1 [Sample 20, N^2-(7-methoxy-2-naphthylsulfonyl)-L-arginyl-N-methylphenylalanine] | 2.5 |
| CCC[C@H](NC(=O)[C@H](CCCNC(=N)N)NS(=O)(=O)c1ccc2cc(OC)c(OC)cc2c1)C(=O)O [Sample 21, N^2-(6,7-dimethoxy-2-naphthylsulfonyl)-L-arginylnorvaline] | 15 |

Tested on: mice
Assay: acute toxicity (LD50), intraperitoneal administration in mice
Type: in vivo
Settings: mice (male, 20 g)
Text: Representative LD50 values, for example, for N^2 -(6,7-dimethoxy-2-naphthylsulfonyl)-L-arginyl-N-butylalanine and N^2 -(4,6-dimethoxy-2-naphthylsulfonyl)-L-arginyl-N-cyclohexylmethylalanine are above 1,500 milligrams per kilogram each.

| Structure (SMILES) | acute toxicity LD50 |
| --- | --- |
| CCCCNC(=O)[C@H](CCCNC(=N)N)NS(=O)(=O)c1cccc2c(N(C)C)cccc12 [N^2 -dansyl-N-butyl-L-argininamide, reference compound] | 75 milligrams per kilogram |
| CCCCN(C)C(=O)[C@H](CCCNC(=N)N)NS(=O)(=O)c1cccc2c(N(C)C)cccc12 [N^2 -dansyl-N-methyl-N-butyl-L-argininamide, reference compound] | 70 milligrams per kilogram |
| CCCCN(C(=O)[C@H](CCCNC(=N)N)NS(=O)(=O)c1ccc2cc(OC)c(OC)cc2c1)[C@@H](C)C(=O)O [Sample 2, N^2-(6,7-dimethoxy-2-naphthylsulfonyl)-L-arginyl-N-butylalanine] | above 1,500 milligrams per kilogram |
| COc1ccc2cc(S(=O)(=O)N[C@@H](CCCNC(=N)N)C(=O)N(CC3CCCCC3)[C@@H](C)C(=O)O)cc(OC)c2c1 [Sample 12, N^2-(4,6-dimethoxy-2-naphthylsulfonyl)-L-arginyl-N-cyclohexylmethylalanine] | above 1,500 milligrams per kilogram |
